Measured values from patent publication US11530384B2, “Use of matrix cells for preparing a micro hair follicle” (L'OREAL, priority 2015, dated 2022).
Entries after “also recorded” stand apart in the source; their conditions may differ.

Test system: matrix cells
Assay: Culture-amplification of hair matrix cells on a 3T3 feeder layer in the presence of Y27632
Assay type: cell-based, human
Settings: matrix cells cultured on mitomycin-blocked 3T3 feeder layer, Green-based medium, 10 μM of Y27632
Source text: Some authors have proposed culturing these cells in coculture with papilla fibroblasts. The drawback of this method is that the culture obtained is not homogeneous, the matrix cells are contaminated with the dermal fibroblasts from the papilla used in coculture (Reynolds A J, Lawrence […] Human hair follicle germinative epidermal cell culture. J Invest Dermatol. 1993 October; 101(4):634-8). Luo et al. have proposed a technique of microdissection followed by culture of the matrix cells on a plastic support (Luo et al: Methods for culturing hair follicle epithelial matrix cells; Reg. number: H1610; Nov. 5, 1996). However, this microdissection technique results in a very low yield of matrix cells. The applicant has isolated the matrix cells and developed a process for culturing these cells. […] keratinocytes until they reach confluence while forming regular clusters. The cells are amplified according to the technique of Rheinwald and Green (Cell, vol. 6, 331-344,1975) by culturing on a feeder support constituted of fibroblasts in a suitable medium known to those skilled in the art, in the presence of growth factors, in particular amino acids, serum, cholera toxin, insulin, triiodothyronine and pH buffer solution. […]

C[C@@H](N)[C@H]1CC[C@H](C(=O)Nc2ccncc2)CC1 [Y27632]
differentiation of matrix cells into keratinocytes positive for K85 K35 markers: differentiation thereof into keratinocytes that are positive for the K85 K35 markers; also recorded: differentiate into K85 K35 keratinocytes | proliferation of matrix cells in culture: considerable proliferation; also recorded: proliferate rapidly
